pIC50: −log10 of the molar value.
Target: T1, human mGlu7 (Homo sapiens, UniProt Q14831)
T1 construct: expressed in transfected cells
Experiment: Fluorescent cell based Ca2+ mobilization assay (FLIPR) on HEK-293 cells expressing human mGlu7
Settings: HEK-293 cells expressing hmGlu7; inhibition of EC80 L-AP4 response; mean of at least three independent experiments in duplicate; read-out: Ca^2+ Flux (mean IC50)
Excerpt: mGlu7 Assay on HEK-Expressing Human mGlu7
The cDNA encoding the human metabotropic glutamate 7 receptor (hmGlu7), (accession number NM_181874.2, NCBI Nucleotide database browser), was subcloned into an expression vector containing also the hygromycin resistance gene. In parallel, the cDNA encoding a G protein allowing redirection of the activation signal to intracellular calcium flux was subcloned into a different expression vector containing also the Puromycin resistance gene. Transfection of both these vectors into HEK293 cells with PolyFect reagent (Qiagen) according to supplier's protocol, and hygromycin and puromycin treatment allowed selection of antibiotic resistant cells which had integrated stably one or more copies of the plasmids. Positive cellular clones expressing hmGlu7 were identified in a functional assay measuring changes in calcium fluxes in response to glutamate and L-AP4 or known mGlu7 orthosteric antagonists.
HEK-293 cells expressing hmGlu7 were maintained in media containing DMEM, Fetal Bovine Serum (10%), Glutamax™ (2 mM), penicillin (100 units/mL), streptomycin (100 μg/mL), geneticin (100 μg/mL) and hygromycin-B (40 μg/mL) and puromycin (1 μg/mL) at 37° C. with 5% CO2 in a humidified atmosphere.
Human mGlu7 HEK-293 cells were plated out 24 hours prior to a fluorescent cell-based calcium mobilization assay using FLIPR^384 assay (Molecular Device, Sunnyvale, CA, USA) in black-walled, clear-bottomed, poly-L-ornithine-coated 384-well plates at a density of 25,000 cells/well in a glutamine/glutamate free DMEM medium containing fetal bovine serum (10%), penicillin (100 units/mL), streptomycin (100 μg/mL) and doxycyline (1 μg/ml) at 37° C. with 5% CO2 in a humidified atmosphere.
On the day of the assay, the medium was aspirated and the cells were loaded with a 3 μM solution of Fluo4-AM (LuBioScience, Lucerne, Switzerland) in 0.03% pluronic acid. After 1 hour at 37° C./5% CO2, the non incorporated dye was removed by washing cell plate with the assay buffer. All assays were performed in a pH 7.4 buffered-solution containing 20 mM HEPES, 143 mM NaCl, 6 mM KCl, 1 mM MgSO4, 1 mM CaCl2, 0.125 mM sulfinpyrazone and 0.1% glucose.
After 10 s of basal fluorescence recording, various concentrations of the compounds of the invention were added to the cells. Changes in fluorescence levels were first monitored for 180 s in order to detect any agonist activity of the compounds. Then the cells were stimulated by an EC80 L-AP4 concentration for an additional 110 s in order to measure inhibiting activities of the compounds of the invention. EC80 L-AP4 concentration is the concentration giving 80% of the maximal glutamate response.
The concentration-response curves of L-AP4 or representative compounds of the present invention were generated using the Prism GraphPad software (Graph Pad Inc, San Diego, USA). The curves were fitted to a four-parameter logistic equation:
(Y=Bottom+(Top−Bottom)/(1+10^((Log IC50−X)*Hill Slope)
allowing determination of IC50 values.
The Table 3 below represents the mean IC50 obtained from at least three independent experiments of selected molecules performed in duplicate.

T1 sequence (Q14831 35-922 isoform Q14831-2 limits assumed): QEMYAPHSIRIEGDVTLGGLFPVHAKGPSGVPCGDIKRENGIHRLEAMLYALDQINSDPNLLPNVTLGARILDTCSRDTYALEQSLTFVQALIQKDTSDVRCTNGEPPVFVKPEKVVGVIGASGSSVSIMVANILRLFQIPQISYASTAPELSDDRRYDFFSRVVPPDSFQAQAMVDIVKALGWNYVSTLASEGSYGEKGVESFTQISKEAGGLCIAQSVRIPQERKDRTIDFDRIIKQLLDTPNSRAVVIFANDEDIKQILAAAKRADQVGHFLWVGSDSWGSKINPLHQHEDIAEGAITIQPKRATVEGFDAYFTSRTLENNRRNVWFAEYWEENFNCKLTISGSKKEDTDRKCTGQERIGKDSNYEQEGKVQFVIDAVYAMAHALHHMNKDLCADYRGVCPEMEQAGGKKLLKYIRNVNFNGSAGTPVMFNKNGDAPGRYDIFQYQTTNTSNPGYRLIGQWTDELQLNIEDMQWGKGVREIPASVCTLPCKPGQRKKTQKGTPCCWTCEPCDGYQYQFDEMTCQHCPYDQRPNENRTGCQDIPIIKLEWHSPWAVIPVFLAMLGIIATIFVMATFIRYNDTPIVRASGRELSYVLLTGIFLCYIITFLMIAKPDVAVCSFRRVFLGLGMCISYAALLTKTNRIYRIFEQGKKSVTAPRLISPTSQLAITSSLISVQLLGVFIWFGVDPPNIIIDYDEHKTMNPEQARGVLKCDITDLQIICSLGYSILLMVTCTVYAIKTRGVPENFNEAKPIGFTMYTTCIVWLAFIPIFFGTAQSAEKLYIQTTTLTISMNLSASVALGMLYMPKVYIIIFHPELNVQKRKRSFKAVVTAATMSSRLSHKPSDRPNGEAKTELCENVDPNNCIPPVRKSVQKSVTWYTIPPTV

Row | pIC50 | SMILES
1 | > 7.00 | Cc1ccc(C2CCc3nn(-c4ccccn4)c(=O)n3C2)c(C)c1 (single isomer, unassigned; (+)) [Compound 1-18, (+)6-(2,4-dimethylphenyl)-2-(pyridin-2-yl)-5,6,7,8-tetrahydro-[1,2,4]triazolo[4,3-a]pyridin-3(2H)-one]
2 | 5.00 to 6.00 | Cc1ccc(C2CCc3nn(-c4ccccn4)c(=O)n3C2)c(C)c1 (single isomer, unassigned; (-)) [Compound 1-17, (−)6-(2,4-dimethylphenyl)-2-(pyridin-2-yl)-5,6,7,8-tetrahydro-[1,2,4]triazolo[4,3-a]pyridin-3(2H)-one]
3 | > 7.00 | Cc1ccc(-c2ccc3nn(-c4ccccn4)c(=O)n3c2)c(C)c1 [Compound 1-1, 6-(2,4-dimethylphenyl)-2-(pyridin-2-yl)-[1,2,4]triazolo[4,3-a]pyridin-3(2H)-one]
4 | 6.00 to 7.00 | Cc1ccc(-c2ccc3nn(-c4ncccn4)c(=O)n3c2)c(C)c1 [Compound 1-2, 6-(2,4-dimethylphenyl)-2-(pyrimidin-2-yl)-[1,2,4]triazolo[4,3-a]pyridin-3(2H)-one]
5 | > 7.00 | Cc1ccc(C2CCc3nn(-c4ccccn4)c(=O)n3C2)c(C)c1 (stereo not shown) [Compound 1-3, 6-(2,4-dimethylphenyl)-2-(pyridin-2-yl)-5,6,7,8-tetrahydro-[1,2,4]triazolo[4,3-a]pyridin-3(2H)-one]
6 | 6.00 to 7.00 | O=c1n(-c2ccccn2)nc2ccc(-c3cccc(N4CCC4)c3)cn12 [Compound 1-4, 6-(3-(azetidin-1-yl)phenyl)-2-(pyridin-2-yl)-[1,2,4]triazolo[4,3-a]pyridin-3(2H)-one]
7 | 6.00 to 7.00 | COc1cccc(-c2ccc3nn(-c4ccccn4)c(=O)n3c2)c1 [Compound 1-5, 6-(3-methoxyphenyl)-2-(pyridin-2-yl)-[1,2,4]triazolo[4,3-a]pyridin-3(2H)-one]
8 | 6.00 to 7.00 | O=c1n(-c2ncccn2)nc2ccc(-c3cccc(N4CCC4)c3)cn12 [Compound 1-6, 6-(3-(azetidin-1-yl)phenyl)-2-(pyrimidin-2-yl)-[1,2,4]triazolo[4,3-a]pyridin-3(2H)-one]
9 | 5.00 to 6.00 | COc1cccc(-c2ccc3nn(-c4ncccn4)c(=O)n3c2)c1 [Compound 1-7, 6-(3-methoxyphenyl)-2-(pyrimidin-2-yl)-[1,2,4]triazolo[4,3-a]pyridin-3(2H)-one]
10 | 5.00 to 6.00 | COc1cccc(C2CCc3nn(-c4ccccn4)c(=O)n3C2)c1 (stereo not shown) [Compound 1-8, 6-(3-methoxyphenyl)-2-(pyridin-2-yl)-5,6,7,8-tetrahydro-[1,2,4]triazolo[4,3-a]pyridin-3(2H)-one]
11 | > 7.00 | COc1cccc(-c2ccc3nn(-c4ccccn4)c(=O)n3c2)c1C [Compound 1-9, 6-(3-methoxy-2-methylphenyl)-2-(pyridin-2-yl)-[1,2,4]triazolo[4,3-a]pyridin-3(2H)-one]
12 | 6.00 to 7.00 | COc1cccc(C2CCc3nn(-c4ccccn4)c(=O)n3C2)c1C (stereo not shown) [Compound 1-10, 6-(3-methoxy-2-methylphenyl)-2-(pyridin-2-yl)-5,6,7,8-tetrahydro-[1,2,4]triazolo[4,3-a]pyridin-3(2H)-one]
13 | 6.00 to 7.00 | COc1cccc(-c2ccc3nn(-c4ncccn4)c(=O)n3c2)c1C [Compound 1-11, 6-(3-methoxy-2-methylphenyl)-2-(pyrimidin-2-yl)-[1,2,4]triazolo[4,3-a]pyridin-3(2H)-one]
14 | 6.00 to 7.00 | O=c1n(-c2ncccn2)nc2ccc(-c3cccc(OC4CC4)c3)cn12 [Compound 1-12, 6-(3-cyclopropoxyphenyl)-2-(pyrimidin-2-yl)-[1,2,4]triazolo[4,3-a]pyridin-3(2H)-one]
15 | 6.00 to 7.00 | O=c1n(-c2ccccn2)nc2ccc(-c3cccc(OC4CC4)c3)cn12 [Compound 1-13, 6-(3-cyclopropoxyphenyl)-2-(pyridin-2-yl)-[1,2,4]triazolo[4,3-a]pyridin-3(2H)-one]
16 | 6.00 to 7.00 | O=c1n(-c2ccccn2)nc2n1CC(c1cccc(OC3CC3)c1)CC2 (stereo not shown) [Compound 1-14, 6-(3-cyclopropoxyphenyl)-2-(pyridin-2-yl)-5,6,7,8-tetrahydro-[1,2,4]triazolo[4,3-a]pyridin-3(2H)-one]
17 | 5.00 to 6.00 | COc1ccc(-c2ccc3nn(-c4ccccn4)c(=O)n3c2)cc1 [Compound 1-15, 6-(4-methoxyphenyl)-2-(pyridin-2-yl)-[1,2,4]triazolo[4,3-a]pyridin-3(2H)-one]
18 | 5.00 to 6.00 | COc1ccc(C2CCc3nn(-c4ccccn4)c(=O)n3C2)cc1 (stereo not shown) [Compound 1-16, 6-(4-methoxyphenyl)-2-(pyridin-2-yl)-5,6,7,8-tetrahydro-[1,2,4]triazolo[4,3-a]pyridin-3(2H)-one]
19 | 5.00 to 6.00 | COc1ccccc1-c1ccc2nn(-c3ccccn3)c(=O)n2c1 [Compound 1-19, 6-(2-methoxyphenyl)-2-(pyridin-2-yl)-[1,2,4]triazolo[4,3-a]pyridin-3(2H)-one]
20 | 6.00 to 7.00 | COc1ccc(-c2ccc3nn(-c4ccccn4)c(=O)n3c2)c(C)c1 [Compound 1-20, 6-(4-methoxy-2-methylphenyl)-2-(pyridin-2-yl)-[1,2,4]triazolo[4,3-a]pyridin-3(2H)-one]
21 | 5.00 to 6.00 | COc1ccc(-c2ccc3nn(-c4ncccn4)c(=O)n3c2)c(C)c1 [Compound 1-21, 6-(4-methoxy-2-methylphenyl)-2-(pyrimidin-2-yl)-[1,2,4]triazolo[4,3-a]pyridin-3(2H)-one]
22 | 6.00 to 7.00 | COc1ccc(C2CCc3nn(-c4ccccn4)c(=O)n3C2)c(C)c1 (stereo not shown) [Compound 1-22, 6-(4-methoxy-2-methylphenyl)-2-(pyridin-2-yl)-5,6,7,8-tetrahydro-[1,2,4]triazolo[4,3-a]pyridin-3(2H)-one]

Source: US20260200911A1, “NOVEL COMPOUNDS” (Neurosterix Pharma Sarl., priority 2022, published 2026)
